Assay results taken from patent US4216206A (priority 1977, dated 1980).

Tested on: mouse
Assay: acute toxicity in the mouse over 7 days
Format: in vivo
Settings: i.v.
Experimental: The acute toxicities of the antibiotics were determined in the mouse over 7 days.

## Thiostrepton
  LD50: < 100 mg/kg
